Reference: the METLIN SMRT retention time set (Domingo-Almenara et al. 2019)

Experiment: gradient 5% acetonitrile 3 min, to 50% in 2 min, to 85% in 15 min, held 3 min, 100 µL/min
Settings: column: Zorbax Extend-C18 2.1 x 50 mm; eluents: water / acetonitrile, 0.1% formic acid
Procedure, shortened: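 Pure standards were run in mixtures of ~100 molecules by HPLC coupled to a quadrupole time-of-flight mass spectrometer. The column was a Zorbax Extend-C18 (2.1 × 50 mm, 1.8 μm) at 100 μL/min, with water and acetonitrile each containing 0.1% formic acid, in positive and negative ionization mode. Dead and dwell volumes were 40 μL and 900 μL. Retention time was taken from computationally picked adduct peaks, each manually inspected, with data collected over 3 months.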

| SMILES | RP-LC retention time [s] |
| --- | --- |
| O=C1NCCCCCCN(C(=O)c2cccs2)[C@H]2CCCC[C@@H]12 | 838 |
| COc1ccc(CCNC(=O)Cc2csc3nc(-c4ccc(OC)c(OC)c4)cn23)cc1OC | 661 |
| COc1ccc2c(c1)-c1nc(NC(=O)c3cccc(F)c3)sc1CC2 | 1120 |
| Cc1cccnc1Nc1nc(-c2ccc(F)cc2)cs1 | 870 |
| CCc1ccc(N2C(=O)C3N=NN(Cc4nc(-c5ccccc5Cl)no4)C3C2=O)cc1 (stereo not given) | 1060 |
| O=C(NCc1ccc(F)cc1F)c1ccc(OCC(=O)C2CC2)cc1 | 784 |
| CC(CNC(=O)c1nc(Cn2c(=O)oc3ccc(Cl)cc32)no1)c1ccccc1 (stereo not given) | 796 |
| COc1ccc(-c2nnc(-c3ccc(-n4ccnc4)nc3)o2)c(OC)c1 | 630 |
| CC1CCN(S(=O)(=O)c2ccc3nn(CCc4ccccc4)c(=O)n3c2)CC1 | 1020 |
| CCc1nnc([C@@H]2CC(F)(F)CN2S(=O)(=O)c2ccc(C)cc2)o1 | 696 |
| COc1ccc(CNC(=O)N(Cc2ccsc2)C2CC2)cc1OC | 769 |
| CN(CC1CCOCC1)C(=O)Nc1ccc(F)c(Cl)c1 | 797 |
| CCOc1ccc2nc(NC(=O)c3cc(=O)c(OCc4ccccc4)cn3C)sc2c1 | 741 |
| CCCN(C)c1nccnc1OC1CCN(C(=O)c2ccoc2)C1 (stereo not given) | 723 |
| COc1ccccc1NC(=O)Nc1c(-c2cccc(C)c2)nc2ccccn12 | 700 |
| CN(CCCC(=O)O)S(=O)(=O)c1ccc(N)cc1 | 598 |
| COc1ccc(CNC(=O)c2c(O)c3cccnc3[nH]c2=O)cc1OC | 804 |
| O=C(Cc1cccn1-c1ccc(Cl)cc1)NCc1ccc(N2CCOCC2)cc1 | 886 |
| CC(C)Cc1nc(CNC(=O)c2coc(C3CC3)n2)no1 | 808 |
| O=C([C@@H]1C[C@H](F)CN1C(=O)Nc1ccc(Cl)cc1)N1CCCCC1 | 732 |
| COc1ccc(S(=O)(=O)N2CCN(c3cc(C)nc(N4CCOCC4)n3)CC2)cc1Cl | 692 |
| N#CCCSc1ccccc1NC(=O)c1cc2cc([N+](=O)[O-])ccc2s1 | 954 |
| CCCc1cc(C2CCCN2C(=O)NCCc2ccccc2)no1 (stereo not given) | 874 |
| CNC(=O)c1cn2ccnc(-c3ccc(C)cc3)c2n1 | 755 |
| O=C(CCc1nnn2c1CN(C(=O)Nc1ccc3c(c1)OCCO3)CC2)N1CCCC1 | 625 |

| SMILES | RP-LC retention time [s] |
| --- | --- |
| O=C(Nc1ccc(-c2nc3ccccc3o2)cc1)Nc1c(F)cccc1F | 870 |
| COc1ccc(CC(=O)Nc2ccc(-c3cn4ccc(C)nc4n3)cc2)cc1 | 639 |
| O=C(Nc1ccsc1-c1nnc(C2CC2)o1)c1ccsc1 | 1170 |
| COc1ccc(OCc2nnc3sc(-c4ccc5ccccc5n4)nn23)cc1 | 1040 |
| Cc1ccc2nc(-c3ccc(Cl)cc3)c(Nc3ccc4c(c3)OCCO4)n2c1 | 735 |
| COC(=O)C1=CN(c2cccc(F)c2)c2ccccc2S1(=O)=O | 796 |
| O=c1ccn(-c2ccc(F)c(F)c2)nc1-c1nc(-c2ccc3c(c2)OCO3)no1 | 877 |
| C=CCn1c(C(=O)NCCc2c[nH]c3ccccc23)cc2cc(S(=O)(=O)N(C)C)ccc21 | 981 |
| Cn1ccc(CN2CCN(Cc3ccccc3F)CC2)cc1=O | 554 |
| O=C(c1nnc(-c2ccc(S(=O)(=O)N3CCCC3)cc2)o1)N1CCN(c2ccccn2)CC1 | 650 |
| Cc1ccc(S(=O)(=O)N2C[C@H]3CN(C(=O)Nc4cccc(C)c4)C[C@@H](C2)O3)cc1 | 852 |
| O=C(c1cccnc1)N1CCN(c2cc(-c3cccs3)[nH]n2)CC1 | 616 |
| COc1cccc(NS(=O)(=O)c2cc(-c3cc(C(F)(F)F)on3)sc2C)c1 | 1110 |
| COc1ccc(-n2ncc3c(=O)n(Cc4nc(-c5ccc(C(C)(C)C)cc5)no4)cnc32)cc1 | 1270 |
| Cc1ccc(-c2c(C)noc2C)cc1S(=O)(=O)Nc1ccccc1 | 932 |
| COc1ccc(-c2noc(C3CC(=O)N(c4ccccc4)C3)n2)c(OC)c1 (stereo not given) | 803 |
| CCc1nc(-c2ccc3c(c2)CCN3C(=O)Cc2ccc(OC)cc2)no1 | 1040 |
| O=C1COc2ccccc2N1Cc1nc(-c2cccc(F)c2)no1 | 990 |
| O=C(CCCn1nnc2cc(S(=O)(=O)N3CCCC3)ccc21)N1CCCc2ccccc21 | 873 |
| CCC(=O)N1c2ccc(S(=O)(=O)CCC(=O)NCc3ccc(N(C)C)cc3)cc2CC1C (stereo not given) | 617 |
| O=C(N[C@H]1C[C@@H]2C[C@H]1CN2C(=O)c1ccc2c(c1)OCO2)c1cccs1 | 871 |
| COCCCNC(=O)C1CCC(=O)N(c2ccc(OC)cc2)C1c1ccc(OC)c(OC)c1 (stereo not given) | 612 |
| O=C(NCc1cccs1)NCC1CC(=O)N(Cc2ccc(F)cc2)C1 (stereo not given) | 656 |
| CN(C)C/C=C(/c1ccc(Br)cc1)c1cccnc1 | 664 |

Results, then the molecule that gave them:

| RP-LC retention time [s] | SMILES |
| --- | --- |
| 633 | CCOC(=O)N1CCN(C(=O)C2CN(C(=O)c3c[nH]c4ccccc34)C2)CC1 |
| 763 | CCOc1ccc(CC(=O)Nc2cc3c(cc2N(C)C)n(C)c(=O)c(=O)n3C)cc1OCC |
| 960 | CCc1nc2c(NC(=O)CC3CCCCC3)cccn2n1 |
| 661 | CCOc1ccc(NC(=O)c2nc(N(C)C)c3c(C)cc(C)nc3n2)cc1 |
| 685 | O=C(CN1CCN(C(=O)Nc2ccc(Cl)cc2)CC1=O)NCc1ccco1 |
| 841 | Cc1nn(-c2ccc(C(=O)NCc3cccs3)cc2)c2c1C(=O)CC(C)(C)C2 |
| 1120 | CCc1ccc(CNC(=O)C2CCN(c3cc(Oc4ccc(CC)cc4)ncn3)CC2)cc1 |
| 594 | CC(C)C(=O)Nc1ccc(CCc2nc3ccc(C(=O)NC4CC4)cc3[nH]2)cc1 |
| 734 | O=C(NC1CCCCC1)N1CCC(c2noc(-c3ccccn3)n2)C1 (stereo not given) |
| 643 | COCCC(=O)NCCC1CCN(C(=O)Nc2ccc(F)cc2F)CC1 |
| 656 | Cc1ccc(S(=O)(=O)N2CCN(CCc3cn(C)c4ncccc34)CC2)cc1C |
| 796 | Cc1noc(C2CCCCN2C(=O)c2cc(-c3ccccc3)n[nH]2)n1 (stereo not given) |
| 569 | Cc1ccc(C(=O)N2CCC(c3nc4ccncc4n3CC(C)C)C2)s1 (stereo not given) |
| 989 | Cc1ccc(C)c(NC(=O)CSc2nccc(N3CCN(c4cc(C)ccc4C)CC3)n2)c1 |
| 666 | Cc1cccc(C)c1NC(=O)Cn1cnc2nc(N3CCC(C(=O)NC(C)C)CC3)sc2c1=O |
| 809 | Cn1c(=O)c(N2CCC(NC(=O)Nc3ccc4c(c3)OCO4)CC2)nc2ccccc21 |
| 570 | COc1ccccc1CC(=O)N1CCC(Nc2ncnc3c2CCC3)C1 (stereo not given) |
| 783 | CCN1C(=O)COc2cc(-c3noc(C(=O)NCC4CCCO4)n3)ccc21 (stereo not given) |
| 794 | COC(=O)c1c(C)[nH]c(C(=O)N2CCC(CC(=O)NC3CCCCCC3)CC2)c1C |
| 587 | CCn1c(=O)c2ccnn2c2ccc(C(=O)NC3CCCC3)cc21 |
| 592 | O=C(NCCCN1CCCCCC1)C1CCCN(c2nn3c(=O)c4c(nc3s2)CCCC4)C1 (stereo not given) |

| RP-LC retention time [s] | SMILES |
| --- | --- |
| 872 | Cc1oc(C2CCN(S(=O)(=O)c3ccc(C#N)cc3)CC2)nc1C(=O)N1CCCC1 |
| 1030 | Cc1cccc(-c2noc(C3CCCN3C(=O)C3CC(=O)N(c4ccc(C)c(C)c4)C3)n2)c1 (stereo not given) |
| 650 | Cc1ccc(-c2cc3c4nnc(CCC(=O)N5CCN(c6ccccn6)CC5)n4ccn3n2)cc1C |
| 816 | O=C(Cn1nc(C(=O)N2CCOCC2)c2ccccc21)Nc1cccc(Cl)c1 |
| 861 | COc1ccccc1OCCC1CCN(S(=O)(=O)c2c(C)nn(C)c2C)C1 (stereo not given) |
| 813 | CC(C)CCNC(=O)c1ccc2c(c1)NC(=O)C1CCCCN21 (stereo not given) |
| 794 | CCc1cccc(NC(=O)C2CCN(S(=O)(=O)c3cn(CC)cn3)CC2)c1 |
| 747 | CC1=C(c2ccc(C)c(C)c2)S(=O)(=O)N=C1N1CCC(NC(=O)C2CCOC2)CC1 (stereo not given) |
| 568 | Cc1cc(C)c2c(N3CCCCC3)nc(C(=O)NC(C)c3cccnc3)nc2n1 (stereo not given) |
| 544 | CNC(=O)Nc1cccnc1N1CCCCC1 |
| 640 | CSc1cccc(NC(=O)C(=O)NCC(c2ccc3c(c2)CCCN3C)N2CCCC2)c1 (stereo not given) |
| 663 | Cc1cnc(CC2CCN(S(=O)(=O)Cc3ccccc3)C2)n1C(C)C (stereo not given) |
| 679 | CCc1noc(NC(C)=O)c1-c1ccc(OC)c(S(=O)(=O)NC2CC2)c1 |
| 1020 | Cc1ccccc1NC(=O)c1csc(-c2cn(C)c3ncccc23)n1 |
| 1030 | Cc1ccsc1C(=O)Nc1cccn2nc(C3CCC3)nc12 |
| 748 | CCNC(=O)C1CCc2sc(C(=O)N3CCCCCC3)cc2C1 (stereo not given) |
| 770 | O=C(Cn1ccn2nc(-c3ccc(F)cc3)c(CO)c2c1=O)NC1CCCC1 |
| 907 | Cc1ccc(NC(=O)c2sc(C)nc2C)c(Cl)c1 |
| 565 | COc1cn(CC(=O)Nc2ccc(F)cc2F)c(CO)cc1=O |
| 610 | COC(=O)c1cnc(N2CCN(C)CC2)c2ccccc12 |
